This experiment in a line: RSV-A Assay: The description is Japanese.

A value given as a limit tells only on which side of the number the result lay.

`N#Cc1ccc(-c2nnc(NC3N=C(c4ccccc4)c4ccccc4NC3=O)o2)c(N2CCOCC2)c1` (stereo not drawn) gave a half-maximal effective concentration (EC50) below 400 nM.

Molecule `COc1ccc(CN2C(=O)C(NC(=S)NC(=O)c3ccccc3)N=C(c3ccccc3)c3ccccc32)cc1` (stereo not drawn) had a concentration giving a half-maximal response (EC50) above 800 nM.

`O=C1Nc2ccccc2C(c2ccccc2)=NC1Nc1nc2cc(F)ccc2o1` (stereo not drawn) had an EC50 above 800 nM.

Take `CCc1nc(-c2nnc(N[C@H]3N=C(c4ccccc4)c4ccccc4NC3=O)o2)c(N2CCOCC2)s1`: the half-maximal effective concentration (EC50) was below 400 nM.

In the case of `O=C1Nc2ccccc2C(c2ccccc2)=NC1Nc1nnc(-c2ccc(OC(F)(F)F)cc2)o1` (stereo not drawn), the EC50 was above 800 nM.

Molecule `O=C1Nc2ccccc2C(c2ccccc2)=NC1Nc1nc(-c2ccccc2)cs1` (stereo not drawn) gave a 50% effective concentration (EC50) above 800 nM.

Take `N#Cc1ccc(-c2cnc(NC3N=C(c4ccccc4)c4ccccc4NC3=O)o2)cc1` (stereo not drawn): the half-maximal effective concentration (EC50) entry was “in the range around 600 nM”.

For `O=C1Nc2ccccc2C(c2ccccc2)=NC1Nc1nnc(-c2ccc(-n3cncn3)c(F)c2)o1` (stereo not drawn), the EC50 result was “in the range around 600 nM”.

Turning to `O=C1Nc2ccccc2C(c2ccccc2)=N[C@@H]1Nc1nnc(-c2nc(-c3ccc(F)cc3)sc2N2CCOCC2)o1`, the EC50 is below 400 nM.

As for `C[C@@H]1CN(c2ncccc2-c2nnc(NC3N=C(c4ccccc4)c4ccccc4NC3=O)o2)CCO1` (stereo partly drawn), the EC50 was above 800 nM.

Regarding `O=C1Nc2ccccc2C(c2ccccc2)=NC1Nc1nnc([C@H]2CCCO2)o1` (stereo partly drawn), the EC50 was above 800 nM.

As to `O=C1Nc2ccccc2C(c2ccccc2)=NC1Nc1nnc(-c2cccnc2N2CCCCC2)o1` (stereo not drawn), the EC50 is above 800 nM.

As for `Cc1cc(-c2nnc(NC3N=C(c4ccccc4)c4ccccc4NC3=O)o2)on1` (stereo not drawn), the EC50 is above 800 nM.

On to `O=C1Nc2ccccc2C(c2ccccc2)=NC1Nc1nnc(-c2ccc(-n3cncn3)nc2)o1` (stereo not drawn), for which the concentration giving a half-maximal response (EC50) is above 800 nM.

With `O=C1Nc2ccccc2C(c2ccccc2)=NC1Nc1nnc(-c2cc3cccnc3s2)o1` (stereo not drawn), the concentration for a half-maximal effect (EC50) was above 800 nM.

For the molecule `Cc1nc(-c2nnc(NC3N=C(c4ccccc4)c4ccccc4NC3=O)o2)ccc1C#N` (stereo not drawn), the concentration giving a half-maximal response (EC50) result is “in the range around 600 nM”.

Consider `O=C1Nc2ccccc2C(c2ccccc2)=N[C@@H]1Nc1nnc(-c2ccc(F)nc2N2CCOCC2)o1`, for which the half-maximal effective concentration (EC50) is below 400 nM.

`O=C1Nc2ccccc2C(c2ccccc2)=N[C@@H]1Nc1cc(-c2ccccc2)cnn1` gave an EC50 above 800 nM.

The molecule `O=C1Nc2ccccc2C(c2ccccc2)=N[C@@H]1Nc1nnc(-c2cn(C3CCC3)nc2N2CCOCC2)o1` gave an EC50 below 400 nM.

`Cc1cc(-c2nnc(NC3N=C(c4ccccc4)c4ccccc4NC3=O)o2)ccc1N1CCOCC1` (stereo not drawn): the half-maximal effective concentration (EC50) entry is “in the range around 600 nM”.

Turning to `O=C1Nc2c(F)cccc2C(c2ccccc2)=N[C@H]1Nc1nnc(-c2ncc(C(F)(F)F)cc2N2CCOCC2)o1`, the EC50 was below 400 nM.

The molecule `O=C1Nc2ccccc2C(c2ccccc2)=N[C@@H]1Nc1nnc(-c2cnc(N3CCOCC3)cn2)o1` registered a 50% effective concentration (EC50) above 800 nM.

For `N#Cc1ccc(-c2nnc(NC3N=C(c4ccccc4)c4ccccc4NC3=O)[nH]2)cc1` (stereo not drawn), the 50% effective concentration (EC50) entry is “in the range around 600 nM”.

On to `O=C1Nc2ccccc2C(c2ccccc2)=NC1Nc1nnc(-c2ccc(C(F)(F)F)cn2)o1` (stereo not drawn), for which the 50% effective concentration (EC50) was above 800 nM.

Consider `O=C1Nc2ccccc2C(c2ccccc2)=N[C@@H]1Nc1nnc(-c2cccnc2N2CCOCC2)o1`, for which the EC50 is below 400 nM.

`O=C1Nc2ccccc2C(c2ccccc2)=N[C@H]1Nc1nnc(-c2ccc(N3CCOCC3)cc2F)o1`: the 50% effective concentration (EC50) is above 800 nM.

For `Cn1ccnc1-c1nnc(NC2N=C(c3ccccc3)c3ccccc3NC2=O)o1` (stereo not drawn), the EC50 was above 800 nM.

`COC1CCN(c2cc(C(F)(F)F)cnc2-c2nnc(N[C@H]3N=C(c4ccccc4)c4ccccc4NC3=O)o2)CC1` registered an EC50 above 800 nM.

Regarding `O=C1Nc2ccccc2C(c2ccccc2)=N[C@@H]1Nc1nnc(-c2ncc(C(F)(F)F)cc2N2CCOC(C(F)(F)F)C2)o1` (stereo partly drawn), the EC50 was below 400 nM.

Consider `O=C1Nc2ccccc2C(c2ccccc2)=NC1Nc1nnc([C@@H]2CCCO2)o1` (stereo partly drawn), for which the concentration giving a half-maximal response (EC50) is above 800 nM.

The molecule `COC1CN(c2ncccc2-c2nnc(NC3N=C(c4ccccc4)c4ccccc4NC3=O)o2)C1` (stereo not drawn) had an EC50 above 800 nM.

Turning to `Cc1cc(-c2nnc(NC3N=C(c4ccccc4)c4ccccc4NC3=O)o2)ccc1-n1cncn1` (stereo not drawn), the EC50 entry is “in the range around 600 nM”.

Take `CC(=O)N1CCC(c2nnc(NC3N=C(c4ccccc4)c4ccccc4NC3=O)o2)CC1` (stereo not drawn): the half-maximal effective concentration (EC50) was above 800 nM.

`COC1C2CNCC21` (stereo not drawn) showed an EC50 above 800 nM.

Turning to `CN(C)Cc1ccc(-c2nnc(NC3N=C(c4ccccc4)c4ccccc4NC3=O)o2)o1` (stereo not drawn), the concentration for a half-maximal effect (EC50) was above 800 nM.

The molecule `COCCNc1ccc(-c2nnc(NC3N=C(c4ccccc4)c4ccccc4NC3=O)o2)cc1` (stereo not drawn) registered an EC50 above 800 nM.

With `O=C1Nc2ccccc2C(c2ccccc2)=N[C@@H]1Nc1nnc(-c2cnc(N3CCOCC3)nc2)o1`, the EC50 result was “in the range around 600 nM”.

For `O=C1Nc2ccccc2C(c2ccccc2)=NC1Nc1nnc(-c2ccc(-n3cccn3)cc2N2CCOCC2)o1` (stereo not drawn), the EC50 is below 400 nM.

In turn, `O=C1Nc2ccccc2C(c2ccccc2)=NC1Nc1nnc(-c2ccccc2-c2ccncc2)o1` (stereo not drawn) came in with an EC50 above 800 nM.

`CN[C@H](c1ccccc1)c1nnc(NC2N=C(c3ccccc3)c3ccccc3NC2=O)o1` (stereo partly drawn) returned an EC50 above 800 nM.

`COCCNc1sc(C(F)(F)F)nc1-c1nnc(N[C@H]2N=C(c3ccccc3)c3ccccc3NC2=O)o1` showed an EC50 below 400 nM.

`Cn1cc(-c2nnc(N[C@H]3N=C(c4ccccc4)c4ccccc4NC3=O)o2)c(N2CCOCC2)n1` registered an EC50 below 400 nM.

The molecule `CCOC(=O)c1ccc(F)cc1N1CCOCC1` yielded a half-maximal effective concentration (EC50) below 400 nM.

For the molecule `O=C1Nc2ccccc2C(c2ccccc2)=NC1Nc1nnc(-c2cccnc2N2CC3CCC(C2)O3)o1` (stereo not drawn), the EC50 result is “in the range around 600 nM”.

On to `O=C1Nc2ccccc2C(c2ccccc2)=N[C@@H]1Nc1nnc(-c2ncc(Br)cc2N2CCOCC2)o1`, for which the EC50 was below 400 nM.

In turn, `O=C1Nc2ccccc2C(c2ccccc2)=NC1Nc1cnc(-c2ccc(F)cc2)cn1` (stereo not drawn) came in with an EC50 above 800 nM.

`O=C1Nc2ccccc2C(c2ccccc2)=N[C@@H]1Nc1nnc(-c2ccc(C(F)(F)F)cc2N2CCOCC2)o1` gave a half-maximal effective concentration (EC50) below 400 nM.

Turning to `COCCn1ccc2cccc(C(=O)OC)c21`, the concentration for a half-maximal effect (EC50) is above 800 nM.

In the case of `O=C1Nc2ccccc2C(c2ccccc2)=N[C@@H]1Nc1nnc(-c2ncc(C(F)(F)F)cc2N2C3CCC2COC3)o1`, the EC50 is below 400 nM.

With `Cn1nccc1-c1nnc(NC2N=C(c3ccccc3)c3ccccc3NC2=O)o1` (stereo not drawn), the half-maximal effective concentration (EC50) is above 800 nM.

For `COc1cc(-c2nnc(NC3N=C(c4ccccc4)c4ccccc4NC3=O)o2)ccn1` (stereo not drawn), the EC50 is above 800 nM.

`CCOC(=O)c1ccc(C2CC2)nc1Cl`: the EC50 is below 400 nM.

`N#CC1CN(c2ncccc2-c2nnc(NC3N=C(c4ccccc4)c4ccccc4NC3=O)o2)C1` (stereo not drawn) showed an EC50 above 800 nM.

The molecule `O=C1Nc2ccccc2C(c2ccccc2)=N[C@H]1Nc1nnc(-c2nc(C(F)(F)F)sc2N2CCO[C@H]3C[C@H]32)o1` returned an EC50 above 800 nM.

`O=C1Nc2ccccc2C(c2ccccc2)=N[C@H]1Nc1nnc(-c2ccc(F)cc2)o1` returned an EC50 above 800 nM.

Molecule `CC(C)(c1nc(-c2nnc(N[C@H]3N=C(c4ccccc4)c4ccccc4NC3=O)o2)c(N2CCOCC2)s1)N1CCOCC1` returned an EC50 below 400 nM.

In turn, `N#Cc1cc(N2CCOCC2)c(-c2nnc(N[C@H]3N=C(c4ccccc4)c4ccccc4NC3=O)o2)s1` showed a 50% effective concentration (EC50) below 400 nM.

`O=C1Nc2ccccc2C(c2ccccc2)=NC1Nc1nnc(-c2ccc(-n3ccc(C(F)(F)F)n3)cc2)o1` (stereo not drawn) showed an EC50 above 800 nM.

The molecule `NNC(=O)c1ccc(N2CCOCC2)cc1C(F)(F)F` returned a concentration for a half-maximal effect (EC50) above 800 nM.

`O=C1Nc2ccccc2C(c2ccccc2)=NC1Nc1ccc(-c2ccncc2)nn1` (stereo not drawn) showed a 50% effective concentration (EC50) above 800 nM.

The molecule `COCc1ccc(-c2nnc(NC3N=C(c4ccccc4)c4ccccc4NC3=O)o2)o1` (stereo not drawn) registered a concentration giving a half-maximal response (EC50) above 800 nM.

For `O=C1Nc2ccccc2C(c2ccccc2)=NC1Nc1nnc(-c2cccc(-n3ccnc3)c2)o1` (stereo not drawn), the 50% effective concentration (EC50) was above 800 nM.

With `Cc1nc(-c2nnc(N[C@H]3N=C(c4ccccc4)c4ccccc4NC3=O)o2)cs1`, the EC50 is above 800 nM.

With `CO[C@@H]1COC[C@H]1Nc1cc(C(F)(F)F)cnc1-c1nnc(N[C@H]2N=C(c3ccccc3)c3ccccc3NC2=O)o1`, the EC50 was below 400 nM.

`O=C1Nc2ccccc2C(c2ccccc2)=NC1Nc1nnc(-c2ccncn2)o1` (stereo not drawn) had an EC50 above 800 nM.

The molecule `CC1(c2nc(-c3nnc(N[C@H]4N=C(c5ccccc5)c5ccccc5NC4=O)o3)c(N3CCOCC3)s2)CCC1` came in with an EC50 below 400 nM.

On to `COC(C)(C)CNc1cc(C(F)(F)F)cnc1-c1nnc(N[C@H]2N=C(c3ccccc3)c3ccccc3NC2=O)o1`, for which the EC50 was above 800 nM.

Consider `CCOC(=O)c1ncc(C(F)(F)F)cc1N`, for which the EC50 is above 800 nM.

For the molecule `O=C1Nc2ccccc2C(c2ccccc2)=NC1Nc1nnc(C2CCOC2)o1` (stereo not drawn), the EC50 was above 800 nM.

Take `COCCn1ccnc1-c1nnc(N[C@H]2N=C(c3ccccc3)c3ccccc3NC2=O)o1`: the EC50 is above 800 nM.

Take `COc1ccc(-c2nnc(NC3N=C(c4ccccc4)c4ccccc4NC3=O)o2)cn1` (stereo not drawn): the EC50 was below 400 nM.

For the molecule `COCCCc1sc(C)nc1-c1nnc(N[C@H]2N=C(c3ccccc3)c3ccccc3NC2=O)o1`, the EC50 was above 800 nM.

For `O=C1Nc2ccccc2C(c2ccccc2)=NC1Nc1ncc(-c2ccccc2)s1` (stereo not drawn), the EC50 is above 800 nM.

`O=C1Nc2ccccc2C(c2ccccc2)=NC1Nc1nnc(-c2nccs2)o1` (stereo not drawn): the concentration for a half-maximal effect (EC50) is above 800 nM.

As for `Cn1cnc(-c2nnc(NC3N=C(c4ccccc4)c4ccccc4NC3=O)o2)c1` (stereo not drawn), the EC50 was above 800 nM.

With `Cc1ccc(-c2nnc(N[C@H]3N=C(c4ccccc4)c4ccccc4NC3=O)o2)c(N2C3CCC2COC3)n1`, the 50% effective concentration (EC50) was below 400 nM.

Take `COCCNc1cc(C(F)(F)F)cnc1-c1nnc(N[C@H]2N=C(c3ccccc3)c3ccccc3NC2=O)o1`: the half-maximal effective concentration (EC50) was below 400 nM.

With `CCOC(=O)c1nc(-c2ccc(F)cn2)sc1N1CCOCC1`, the EC50 is below 400 nM.

Consider `O=C1Nc2ccccc2C(c2ccccc2)=N[C@@H]1Nc1nnc(-c2ncc(C(F)(F)F)cc2N2CCC(O)CC2)o1`, for which the concentration giving a half-maximal response (EC50) is above 800 nM.

`O=C1Nc2ccccc2C(c2ccccc2)=N[C@@H]1Nc1nnc(-c2cn(CC(F)(F)F)nc2N2CCOCC2)o1` gave an EC50 above 800 nM.

As for `COC(=O)c1ccc(N2CCCC2)cc1N1CCOCC1`, the EC50 was below 400 nM.

Take `Cc1cc(-n2cncn2)ccc1-c1nnc(NC2N=C(c3ccccc3)c3ccccc3NC2=O)o1` (stereo not drawn): the concentration for a half-maximal effect (EC50) is above 800 nM.

Consider `Cc1ccc(-c2nnc(NC3N=C(c4ccccc4)c4ccccc4NC3=O)o2)o1` (stereo not drawn), for which the EC50 was above 800 nM.

As a reminder, the EC50 is the concentration that produces a half-maximal response.
